Measured values taken from article PMC3511009, “Modulating the activity of short arginine-tryptophan containing antibacterial peptides with N-terminal metallocenoyl groups” (Beilstein Journal of Organic Chemistry, 2012).
Values after ≈ are worked out from the molar mass of the structure shown. Read-outs that look alike come from different tables or passages of the source. Square brackets hold non-standard residues; d marks the D form. Peptide text beside a SMILES is read from it. * marks the point of attachment. X1 = O=C([C]12[CH]3[CH]4[CH]5[CH]1[Ru]45321678[CH]2[CH]1[CH]6[CH]7[CH]28)*

What was measured:
Hemolytic activity = type: cell-based, human; details: human, at 263 µg/mL (192 µM); 50% DMSO/PBS; relative to Triton X-100; read-out: hemolysis of hRBCs
Protocol: (§1) Although an HC50 value was reported for (RW)3 [53], neither the D-amino acid peptide nor the organometallic derivatized peptides were studied with respect to their hemolytic capacity. Therefore, all peptides were tested in parallel to obtain HC50 values under identical conditions.
(§2) After drawing whole blood into anticoagulant containing tubes (BD Vacutainer®, K2 EDTA 3.6 mg, Ref 368841, Lot 1248213), its fractionation was executed with one volume whole blood added to nine volumes sterile 0.9% NaCl and centrifugation (800g, 10 min, 4 °C). Subsequently, the lowest fraction containing all hRBCs was washed twice with nine volumes 1 × PBS (PAA), triturating carefully. The concentrated hRBCs were re-suspended with 1 × PBS to an erythrocyte concentration of 5% (v/v). Wells of a 96-well plate were filled with 100 µL of the appropriate peptide solutions: The peptides were dissolved in 1 × PBS and DMSO (5% for (RW)3 and 50% for RcCO-W(RW)2). These were mixed with 100 µL of the 5% hRBCs solution and incubated under agitation on a flat shaker (170 rpm, 30 min, 37 °C). […] The release of hemoglobin was monitored by measuring the absorbance of the supernatant at 550 nm using an automated 96-well plate reader. […] Toxicity on human cancer cell lines was determined according to previously described procedures.

[1] = tested on: Escherichia coli DSM 30083
Protocol: (§3) The antibacterial activity of the peptides was first assessed by determining their minimum inhibitory concentration (MIC) value. This MIC value represents the lowest concentration of the antibacterial agent that is needed to hinder the growth of the bacteria. For this, six standard bacterial strains – among them three Gram-negative and three Gram-positive pathogens – were incubated with increasing concentrations of the antibacterial peptide (Table 2). In order to put the activities of these RW-based synAMPs and their organometallic conjugates into perspective, two reference peptides were included, i.e., membrane-targeting gramicidin S derivative GS(K2Y2) and cell wall precursor lipid II-targeting vancomycin.
(§4) The minimal inhibitory concentrations (MIC) were tested against Escherichia coli DSM 30083, Acinetobacter baumannii DSM 30007, Pseudomonas aeruginosa DSM 50071, Bacillus subtilis DSM 402, Staphylococcus aureus DSM 20231 (type strain), and Staphylococcus aureus ATCC 43300 (MRSA) in a microtiter plate assay according to CLSI guidelines. E. coli, A. baumannii, S. aureus, and B. subtilis were grown in Mueller–Hinton (MH) broth, P. aeruginosa in cation adjusted Mueller–Hinton II. […] Serial dilution in culture media was carried out automatically with the Tecan Freedom Evo 75 liquid handling workstation (Tecan, Männedorf, Switzerland) from 512 to 0.5 µg/mL. Peptide dilutions were inoculated with 10^5 bacteria/mL taken from late exponential cultures grown in the same media in a total volume of 200 µL per well. Cells were incubated for 16 h at 37 °C. The lowest peptide concentration inhibiting visible bacterial growth was taken as MIC.
(§5) Cells were grown in DMEM until late exponential phase before using them for inoculation. Peptide concentrations, inoculation and incubation were performed as described above.

[2] = tested on: Acinetobacter baumannii DSM 30007; test: microbe, parasite or virus in culture
Protocol: as §3, §4, §5

[3] = tested on: Bacillus subtilis DSM 402; test: microbe, parasite or virus in culture; details: for Minimum inhibitory concentration, B. subtilis: DSM 402, 16 h
Protocol: as §3, §4, §5

[4] = tested on: Staphylococcus aureus ATCC 43300 (MRSA); test: microbe, parasite or virus in culture
Protocol: as §3, §4, §5

[5] = tested on: Staphylococcus aureus DSM 20231 (type strain); test: microbe, parasite or virus in culture
Protocol: as §3, §4, §5

[6] = tested on: Pseudomonas aeruginosa DSM 50071; test: MIC, microtiter plate assay (CLSI); type: cell-based; details: for Minimum inhibitory concentration, P. aeruginosa: title: in the cell culture medium, CLSI guidelines, µM calculated with one TFA counterion per basic residue
Protocol: as §3, §4, §5

M. luteus = test: MIC in half-concentrated MH broth, polypropylene plates; type: cell-based; details: 18 h
Protocol: (§6) Determination of MIC values was performed in 96-well polypropylene microtiter plates (Life Technologies) in order to reduce the AMP binding. A series of 2-fold dilutions of the peptides was prepared directly in the plate in half-concentrated MH broth. The tested strains were grown to an optical density (600 nm) of 0.5 in half-concentrated MH broth and diluted 1:10^5 using the same medium. Then, 100 µL of this suspension was mixed with 100 µL of the peptide solution already prepared in the wells of the microtiter plate as mentioned earlier. […] The results given are mean values of three or more independent determinations.

S. aureus (133) = test: as above; type: cell-based; details: 133, 18 h
Protocol: as §6

[7] = tested on: human red blood cells (hRBCs); test: Hemolytic activity; type: cell-based
Protocol: as §1, §2

[8] = tested on: human breast adenocarcinoma (MCF7); type: cell-based
Protocol: (§7) Finally, to determine whether the peptides are selective for bacterial cells, we tested the toxicity against mammalian cells using three malignant cell lines: human liver carcinoma (HepG2), human colon adenocarcinoma grade II (HT29) and human breast adenocarcinoma (MCF7) cell lines (Table 5).
(§8) After drawing whole blood into anticoagulant containing tubes (BD Vacutainer®, K2 EDTA 3.6 mg, Ref 368841, Lot 1248213), its fractionation was executed with one volume whole blood added to nine volumes sterile 0.9% NaCl and centrifugation (800g, 10 min, 4 °C). Subsequently, the lowest fraction containing all hRBCs was washed twice with nine volumes 1 × PBS (PAA), triturating carefully. The concentrated hRBCs were re-suspended with 1 × PBS to an erythrocyte concentration of 5% (v/v). Wells of a 96-well plate were filled with 100 µL of the appropriate peptide solutions: The peptides were dissolved in 1 × PBS and DMSO (5% for (RW)3 and 50% for RcCO-W(RW)2). These were mixed with 100 µL of the 5% hRBCs solution and incubated under agitation on a flat shaker (170 rpm, 30 min, 37 °C). After sedimenting all probes under centrifugation (800g, 10 min, 4 °C), all supernatants were transferred into a clean 96-well plate. The release of hemoglobin was monitored by measuring the absorbance of the supernatant at 550 nm using an automated 96-well plate reader. Controls for 0 and 100% hemolysis consisted of hRBC 5% (v/v) suspended in PBS containing DMSO in appropriate concentrations and 1% Triton X-100, respectively. Toxicity on human cancer cell lines was determined according to previously described procedures.

[9] = tested on: human colon adenocarcinoma grade II (HT29); type: cell-based
Protocol: as §7, §8

[10] = tested on: human liver carcinoma (HepG2); type: cell-based
Protocol: as §7, §8

[11] = tested on: three human cancer cell lines (HepG2, HT29, MCF7)
Protocol: Toxicity on human cancer cell lines was determined according to previously described procedures [67–68].

[12] = tested on: human red blood cells (hRBCs); details: cited from earlier work
[13] = title: in the cell culture medium, CLSI guidelines, µM calculated with one TFA counterion per basic residue
[14] = value outside brackets, title: in the cell culture medium

Compound: N=C(N)NCCC[C@H](NC(=O)[C@H](Cc1c[nH]c2ccccc12)NC(=O)[C@H](CCCNC(=N)N)NC(=O)[C@H](Cc1c[nH]c2ccccc12)NC(=O)[C]12[CH]3[CH]4[CH]5[CH]1[Ru]45321678[CH]2[CH]1[CH]6[CH]7[CH]28)C(=O)N[C@@H](Cc1c[nH]c2ccccc12)C(N)=O (stereo partly drawn) [RcCO-W(RW)2] (X1-WRWRW-NH2)
- hemolysis at 30 min, 192 µM (Hemolytic activity): 64%

Compound: FcCO-RWRWRW-NH2 [FcCO-(RW)3]
- Minimum inhibitory concentration, E. coli [1, 13]: 20 µM

Compound: CN[C@H](CC(C)C)C(=O)N[C@H]1C(=O)N[C@@H](CC(N)=O)C(=O)N[C@H]2C(=O)N[C@H]3C(=O)N[C@H](C(=O)N[C@H](C(=O)O)c4cc(O)cc(O)c4-c4cc3ccc4O)[C@H](O)c3ccc(c(Cl)c3)Oc3cc2cc(c3O[C@@H]2O[C@H](CO)[C@@H](O)[C@H](O)[C@H]2O[C@H]2C[C@](C)(N)[C@H](O)[C@H](C)O2)Oc2ccc(cc2Cl)[C@H]1O [vancomycin, reference compound]
- MIC ([2]; Acinetobacter baumannii, DSM30007, read-out: Minimum inhibitory concentration, A. baumannii): 38 µM (≈ 55.1 µg/mL)
- MIC ([3]; Bacillus subtilis, DSM402, read-out: Minimum inhibitory concentration, B. subtilis): 0.3 µM (≈ 0.435 µg/mL)
- MIC ([4]; Staphylococcus aureus, ATCC43300|MRSA, read-out: Minimum inhibitory concentration, S. aureus (MRSA)): 0.6 µM (≈ 0.87 µg/mL)
- MIC ([5]; Staphylococcus aureus, DSM20231, read-out: Minimum inhibitory concentration, S. aureus): 0.3 µM (≈ 0.435 µg/mL)
- MIC ([6]; Pseudomonas aeruginosa, DSM50071, read-out: Minimum inhibitory concentration, P. aeruginosa): > 100 µM

Compound: N=C(N)NCCCC(N)C(=O)NC(Cc1c[nH]c2ccccc12)C(=O)NC(CCCNC(=N)N)C(=O)NC(Cc1c[nH]c2ccccc12)C(=O)NC(CCCNC(=N)N)C(=O)NC(Cc1c[nH]c2ccccc12)C(N)=O (stereo not drawn) [(RW)3] (H-RWRWRW-NH2; configuration not given here)
- Minimum inhibitory concentration, E. coli ([1]; DSM 30083, 16 h): 21 µM (≈ 21.9 µg/mL)
- Minimum inhibitory concentration, A. baumannii ([2]; DSM 30007, 16 h): 21 µM (≈ 21.9 µg/mL)
- Minimum inhibitory concentration, B. subtilis [3]: 1.3 µM (≈ 1.36 µg/mL)
- Minimum inhibitory concentration, S. aureus ([5]; DSM 20231, 16 h): 11 (11) µM
- MIC, M. luteus (M. luteus): 0.6 ± 0.0 µg/mL (≈ 0.575 µM)
- MIC, S. aureus (133) (S. aureus (133)): 2.1 ± 0.7 µg/mL (≈ 2.01 µM)
- concentration up to which no significant destruction of erythrocytes [7]: up to 500 µg/mL
- IC50 [8]: 159 ± 7 µM
- IC50 [9]: 132 ± 12 µM
- IC50 [10]: 143 ± 21 µM
- IC50 [11]: ~140 µM
- concentration of 50% hemolysis [12]: ~ 250 µM

Compound: Ac-RWRWRW-NH2 [Ac(RW)3, Ac-RWRWRW-NH2]
- Minimum inhibitory concentration, E. coli ([1]; DSM 30083, 16 h): 45 µM
- Minimum inhibitory concentration, B. subtilis [3]: 45 µM

Compound: H-KWKWKW-NH2 [(KW)3]
- Minimum inhibitory concentration, E. coli [1, 13]: n.a. (‘n.a.’ means ‘not active’ (MIC > 100 μM))
- Minimum inhibitory concentration, A. baumannii [2, 13]: n.a. (‘n.a.’ means ‘not active’ (MIC > 100 μM))
- Minimum inhibitory concentration, S. aureus (MRSA) [4, 14]: n.a. (‘n.a.’ means ‘not active’ (MIC > 100 μM))
- Minimum inhibitory concentration, S. aureus [5, 14]: n.a. (‘n.a.’ means ‘not active’ (MIC > 100 μM))
- Minimum inhibitory concentration, P. aeruginosa [6]: n.a. (‘n.a.’ means ‘not active’ (MIC > 100 μM))

Compound: CC(C)C[C@@H]1NC(=O)[C@H](CCCCN)NC(=O)[C@H](C(C)C)NC(=O)[C@@H]2CCCN2C(=O)[C@@H](Cc2ccc(O)cc2)NC(=O)[C@H](CC(C)C)NC(=O)[C@H](CCCCN)NC(=O)[C@H](C(C)C)NC(=O)[C@@H]2CCCN2C(=O)[C@@H](Cc2ccc(O)cc2)NC1=O [GS(K2Y2), cyclo([Pro-Val-Lys-Leu-D-Tyr]2), reference compound] (cyclo(PVKL[dY]PVKL[dY]))
- Minimum inhibitory concentration, B. subtilis [3]: 1.4 µM (≈ 1.68 µg/mL)
- Minimum inhibitory concentration, S. aureus (MRSA) ([4]; ATCC 43300, 16 h): 2.8 µM (≈ 3.36 µg/mL)
- Minimum inhibitory concentration, S. aureus ([5]; DSM 20231, 16 h): 1.4 µM (≈ 1.68 µg/mL)
- Minimum inhibitory concentration, P. aeruginosa [6]: n.a. (‘n.a.’ means ‘not active’ (MIC > 100 μM))
